This passage reports Ki results from US20260193293A1, “PEPTIDES CAPABLE OF INHIBITING PROTEIN-PROTEIN INTERACTIONS AT GABAB1A SUBUNIT AND USES THEREOF” (UNIVERSITY OF COPENHAGEN, priority 2022, published 2026).

Like-named read-outs stand apart in the source and are kept apart here. Residues, ends and D or L forms follow the SMILES beside them.

The target of this assay is Sushi domains (SD1/2) protein. The assay can be described thus: Fluorescence polarization (FP) competition assay with AJAP-1probe, calculated Ki. It counts as binding. A digest of the protocol:
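Ki values were derived from IC50s (sigmoidal fits, ≥ triplicate), with probe Kd obtained by saturation titration of SD1/2. Peptides displaced a 25 nM TAMRA-labelled probe; polarization read at 530/580 nm in 1% BSA-containing PBS, pH 7.4, room temperature.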

Where [1] appears, read: Table 12, deep mutational scanning validation variants of PIANPWT, read-out: Ki (nM) mean ± SEM.
Where [2] appears, read: Table 9, Ala-, D-amino acids and N-methylation scans of PIANPWT, read-out: Ki (nM) mean ± SEM.
Setting [3] is: Table 6, elongation and truncation scan of PIANP binding epitope, read-out: Ki (nM) mean ± SEM.
Where [4] appears, read: Table 14, CPPs tagged peptides, read-out: Ki (nM) mean ± SEM.
[5] abbreviates: Table 3, SPOT hit validation and previously reported peptides, read-out: Ki (nM) mean ± SEM.
The mark [6] stands for this setting: purified peptides, read-out: Ki.

Turning to `CC[C@H](C)[C@H](NC(=O)[C@H](C)NC(=O)[C@H](Cc1c[nH]c2ccccc12)NC(=O)[C@@H]1CCCN1C(C)=O)C(=O)N[C@H](C(=O)N[C@@H](Cc1c[nH]c2ccccc12)C(=O)NCC(=O)N1CCC[C@H]1C(=O)N[C@H](C(=O)N[C@@H](CO)C(=O)N[C@@H](CO)C(=O)N[C@@H](CCCNC(=N)N)C(=O)N[C@@H](CCC(=O)O)C(=O)N[C@@H](CC(=O)O)C(N)=O)[C@@H](C)O)C(C)C` [PWAIVWGPTSSRED] (Ac-PWAIVWGPTSSRED-NH2), the inhibitory constant (Ki) under setting [1] was 383 ± 3 nM.
With `CC[C@H](C)[C@H](NC(=O)[C@H](C)NC(=O)[C@H](Cc1c[nH]c2ccccc12)NC(=O)[C@@H]1CCCN1C(C)=O)C(=O)N[C@H](C(=O)N[C@@H](Cc1c[nH]c2ccccc12)C(=O)NCC(=O)N1CCC[C@H]1C(=O)N[C@H](C(=O)N[C@H](C(=O)N[C@@H](C)C(=O)N[C@@H](CCCNC(=N)N)C(=O)N[C@@H](CCC(=O)O)C(=O)N[C@@H](CC(=O)O)C(N)=O)C(C)C)[C@@H](C)O)C(C)C` [PWAIVWGPTVARED] (Ac-PWAIVWGPTVARED-NH2), the Ki under setting [2] is 480 ± 4 nM.
Regarding `CC[C@H](C)[C@H](NC(=O)[C@H](C)NC(=O)[C@H](Cc1c[nH]c2ccccc12)NC(=O)[C@@H]1CCCN1C(C)=O)C(=O)N[C@H](C(=O)N[C@@H](Cc1c[nH]c2ccccc12)C(=O)NCC(=O)N1CCC[C@H]1C(=O)N[C@H](C(=O)N[C@H](C(=O)N[C@@H](CC(=O)O)C(=O)N[C@@H](CCCNC(=N)N)C(=O)N[C@@H](CCC(=O)O)C(=O)N[C@@H](CC(=O)O)C(N)=O)C(C)C)[C@@H](C)O)C(C)C` [PWAIVWGPTVDRED] (Ac-PWAIVWGPTVDRED-NH2), the Ki under setting [1] is 379 ± 9 nM.
Turning to `CC[C@H](C)[C@H](NC(=O)[C@H](C)NC(=O)[C@H](Cc1c[nH]c2ccccc12)NC(=O)[C@@H]1CCCN1C(C)=O)C(=O)N[C@H](C(=O)N[C@@H](Cc1c[nH]c2ccccc12)C(=O)NCC(=O)N1CCC[C@H]1C(=O)N[C@H](C(=O)N[C@H](C(=O)N[C@@H](CO)C(=O)N[C@@H](C)C(=O)N[C@@H](CCC(=O)O)C(=O)N[C@@H](CC(=O)O)C(N)=O)C(C)C)[C@@H](C)O)C(C)C` [PWAIVWGPTVSAED] (Ac-PWAIVWGPTVSAED-NH2), the Ki under setting [2] was 341 ± 7 nM.
With `CC[C@H](C)[C@H](NC(=O)[C@H](C)NC(=O)[C@H](Cc1c[nH]c2ccccc12)NC(=O)[C@@H]1CCCN1C(C)=O)C(=O)N[C@H](C(=O)N[C@@H](Cc1c[nH]c2ccccc12)C(=O)NCC(=O)N1CCC[C@H]1C(=O)N[C@H](C(=O)N[C@H](C(=O)N[C@@H](CO)C(=O)N[C@@H](CC(=O)O)C(=O)N[C@@H](CCC(=O)O)C(=O)N[C@@H](CC(=O)O)C(N)=O)C(C)C)[C@@H](C)O)C(C)C` [PWAIVWGPTVSDED] (Ac-PWAIVWGPTVSDED-NH2), the inhibition constant (Ki) under setting [1] is 327 ± 6 nM.
Take `CC[C@H](C)[C@H](NC(=O)[C@H](C)NC(=O)[C@H](Cc1c[nH]c2ccccc12)NC(=O)[C@@H]1CCCN1C(C)=O)C(=O)N[C@H](C(=O)N[C@@H](Cc1c[nH]c2ccccc12)C(=O)NCC(N)=O)C(C)C` [PWAIVWG] (Ac-PWAIVWG-NH2): the Ki under setting [3] was 579 ± 21 nM.
`CC[C@H](C)[C@H](NC(=O)[C@H](C)NC(=O)[C@H](Cc1c[nH]c2ccccc12)NC(=O)[C@@H]1CCCN1C(C)=O)C(=O)N[C@H](C(=O)N[C@@H](Cc1c[nH]c2ccccc12)C(N)=O)C(C)C` [PWAIVW] (Ac-PWAIVW-NH2): under setting [3], the inhibition constant Ki is 706 ± 16 nM.
With `CC[C@H](C)[C@H](NC(=O)[C@H](Cc1ccccc1)NC(=O)[C@H](Cc1c[nH]c2ccccc12)NC(=O)[C@@H]1CCCN1C(C)=O)C(=O)N[C@H](C(=O)N[C@@H](Cc1c[nH]c2ccccc12)C(=O)NCC(=O)N1CCC[C@H]1C(=O)N[C@H](C(=O)N[C@H](C(=O)N[C@@H](CO)C(=O)N[C@@H](CC(=O)O)C(=O)N[C@@H](CCC(=O)O)C(=O)N[C@@H](CC(=O)O)C(N)=O)C(C)C)[C@@H](C)O)C(C)C` [PWFIVWGPTVSDED] (Ac-PWFIVWGPTVSDED-NH2), under setting [1], the inhibition constant Ki is 192 ± 4 nM.
The same measure, in the same setting: then `CC[C@H](C)[C@H](NC(=O)[C@H](Cc1ccccc1)NC(=O)[C@H](Cc1c[nH]c2ccccc12)NC(=O)[C@@H]1CCCN1C(C)=O)C(=O)N[C@H](C(=O)N[C@@H](Cc1c[nH]c2ccccc12)C(=O)NCC(=O)N1CCC[C@H]1C(=O)N[C@H](C(=O)N[C@H](C(=O)N[C@@H](CO)C(=O)N[C@@H](CCCNC(=N)N)C(=O)N[C@@H](CCC(=O)O)C(=O)N[C@@H](CC(=O)O)C(N)=O)C(C)C)[C@@H](C)O)C(C)C` [PWFIVWGPTVSRED] (Ac-PWFIVWGPTVSRED-NH2), with 461 ± 10 nM.
Take `CC[C@H](C)[C@H](NC(=O)[C@H](Cc1c[nH]c2ccccc12)NC(=O)[C@@H]1CCCN1C(C)=O)C(=O)N[C@H](C(=O)N[C@H](C(=O)N[C@@H](Cc1c[nH]c2ccccc12)C(=O)NCC(=O)N1CCC[C@H]1C(=O)N[C@H](C(=O)N[C@H](C(=O)N[C@@H](CO)C(=O)N[C@@H](CCCNC(=N)N)C(=O)N[C@@H](CCC(=O)O)C(=O)N[C@@H](CC(=O)O)C(N)=O)C(C)C)[C@@H](C)O)C(C)C)[C@@H](C)CC` [PWIIVWGPTVSRED]: the inhibition constant Ki under setting [1] was 339 ± 8 nM.
Turning to `CC[C@H](C)[C@H](NC(=O)[C@@H](NC(=O)[C@H](Cc1c[nH]c2ccccc12)NC(=O)[C@@H]1CCCN1C(C)=O)C(C)C)C(=O)N[C@H](C(=O)N[C@@H](Cc1c[nH]c2ccccc12)C(=O)NCC(=O)N1CCC[C@H]1C(=O)N[C@H](C(=O)N[C@H](C(=O)N[C@@H](CO)C(=O)N[C@@H](CCCNC(=N)N)C(=O)N[C@@H](CCC(=O)O)C(=O)N[C@@H](CC(=O)O)C(N)=O)C(C)C)[C@@H](C)O)C(C)C` [PWVIVWGPTVSRED] (Ac-PWVIVWGPTVSRED-NH2), the Ki under setting [1] is 302 ± 4 nM.
With `CC[C@H](C)[C@H](NC(=O)[C@H](Cc1ccc(O)cc1)NC(=O)[C@H](Cc1c[nH]c2ccccc12)NC(=O)[C@@H]1CCCN1C(C)=O)C(=O)N[C@H](C(=O)N[C@@H](Cc1c[nH]c2ccccc12)C(=O)NCC(=O)N1CCC[C@H]1C(=O)N[C@H](C(=O)N[C@H](C(=O)N[C@@H](CO)C(=O)N[C@@H](CCCNC(=N)N)C(=O)N[C@@H](CCC(=O)O)C(=O)N[C@@H](CC(=O)O)C(N)=O)C(C)C)[C@@H](C)O)C(C)C` [PWYIVWGPTVSRED] (Ac-PWYIVWGPTVSRED-NH2), under setting [1], the Ki is 336 ± 2 nM.
`CC[C@H](C)[C@H](NC(=O)[C@H](Cc1c[nH]c2ccccc12)NC(=O)[C@H](CC(=O)O)NC(=O)[C@H](CC(=O)O)NC(=O)[C@H](CC(=O)O)NC(=O)[C@H](CCC(=O)O)NC(=O)[C@H](CCCNC(=N)N)NC(=O)[C@H](CCCNC(=N)N)NC(=O)[C@H](CCCNC(=N)N)NC(=O)[C@H](CCCNC(=N)N)NC(C)=O)C(=O)N[C@@H](CC(=O)O)C(=O)N[C@@H](Cc1c[nH]c2ccccc12)C(=O)N[C@@H](Cc1ccc(O)cc1)C(=O)N[C@@H](CC(=O)O)C(=O)N[C@@H](CO)C(=O)N[C@@H](CC(=O)O)C(=O)N[C@@H](CC(=O)O)C(=O)N[C@@H](CC(=O)O)C(N)=O` [Peptide 4R-16] (Ac-RRRREDDDWIDWYDSDDD-NH2): under setting [4], the Ki is 20.6 ± 0.2 nM.
For `CC[C@H](C)[C@H](NC(=O)[C@H](Cc1c[nH]c2ccccc12)NC(=O)[C@H](CC(=O)O)NC(=O)[C@H](CC(=O)O)NC(=O)[C@H](CC(=O)O)NC(=O)[C@H](CCC(=O)O)NC(=O)[C@H](CCCNC(=N)N)NC(=O)[C@H](CCCNC(=N)N)NC(=O)[C@H](CCCNC(=N)N)NC(=O)[C@H](CCCNC(=N)N)NC(C)=O)C(=O)N[C@@H](CC(=O)O)C(=O)N[C@@H](Cc1c[nH]c2ccccc12)C(=O)NCC(=O)N1CCC[C@H]1C(=O)N[C@H](C(=O)N[C@@H](CO)C(=O)N[C@@H](CC(=O)O)C(=O)N[C@@H](CC(=O)O)C(=O)N[C@@H](CC(=O)O)C(N)=O)[C@@H](C)O` [Peptide 4R-17] (Ac-RRRREDDDWIDWGPTSDDD-NH2), the inhibitory constant (Ki) under setting [4] was 15 ± 1 nM.
Regarding `CC(=O)N[C@@H](CC(=O)O)C(=O)N[C@@H](CO)C(=O)N[C@@H](C)C(=O)N[C@@H](CC(=O)O)C(=O)N[C@@H](C)C(=O)N[C@@H](CCC(=O)O)C(=O)N[C@@H](CCC(=O)O)C(=O)N[C@@H](CC(=O)O)C(=O)N[C@@H](CC(=O)O)C(=O)N[C@@H](CO)C(=O)N[C@@H](CC(=O)O)C(=O)N[C@H](C(=O)N[C@@H](Cc1c[nH]c2ccccc12)C(=O)N[C@@H](Cc1c[nH]c2ccccc12)C(=O)NCC(N)=O)C(C)C` [Peptide 11] (Ac-DSADAEEDDSDVWWG-NH2), the inhibition constant (Ki) (AJAP-1probe, read-out: Ki) is 5000 nM and the Ki under setting [5] was 5030 ± 171 nM.
`CC(=O)N[C@@H](CO)C(=O)N[C@@H](C)C(=O)N[C@@H](CC(=O)O)C(=O)N[C@@H](C)C(=O)N[C@@H](CCC(=O)O)C(=O)N[C@@H](CCC(=O)O)C(=O)N[C@@H](CC(=O)O)C(=O)N[C@@H](CC(=O)O)C(=O)N[C@@H](CO)C(=O)N[C@@H](CC(=O)O)C(=O)N[C@H](C(=O)N[C@@H](Cc1c[nH]c2ccccc12)C(=O)N[C@@H](Cc1c[nH]c2ccccc12)C(=O)NCC(=O)NCC(N)=O)C(C)C` [Peptide 12] (Ac-SADAEEDDSDVWWGG-NH2): the Ki (AJAP-1probe, read-out: Ki) was 1300 nM and the Ki under setting [5] is 1300 ± 28 nM.
`CC(=O)N[C@@H](CCC(=O)O)C(=O)N[C@@H](CC(=O)O)C(=O)N[C@@H](CC(=O)O)C(=O)N[C@@H](CO)C(=O)N[C@@H](CC(=O)O)C(=O)N[C@H](C(=O)N[C@@H](Cc1c[nH]c2ccccc12)C(=O)N[C@@H](Cc1c[nH]c2ccccc12)C(=O)NCC(=O)NCC(=O)N[C@@H](C)C(=O)N[C@@H](CC(=O)O)C(=O)N[C@H](C(=O)N[C@@H](CC(=O)O)C(=O)N[C@@H](Cc1ccc(O)cc1)C(N)=O)[C@@H](C)O)C(C)C` [Peptide 13] (Ac-EDDSDVWWGGADTDY-NH2): the inhibition constant Ki under setting [6] is 581 nM.
With `CC[C@H](C)[C@H](NC(=O)[C@H](C)NC(=O)[C@H](Cc1c[nH]c2ccccc12)NC(=O)[C@@H]1CCCN1C(C)=O)C(=O)N[C@H](C(=O)N[C@@H](Cc1c[nH]c2ccccc12)C(=O)NCC(=O)N1CCC[C@H]1C(=O)N[C@H](C(=O)N[C@H](C(=O)N[C@@H](CO)C(=O)N[C@@H](CCCNC(=N)N)C(=O)N[C@@H](CCC(=O)O)C(=O)N[C@@H](CC(=O)O)C(=O)NCC(N)=O)C(C)C)[C@@H](C)O)C(C)C` [Peptide 14] (Ac-PWAIVWGPTVSREDG-NH2), under setting [6], the inhibitory constant (Ki) is 465 nM.
